Measured values as given in US8008303B2, “Biphenyl derivatives and their use in treating hepatitis C” (AstraZeneca AB, priority 2005, dated 2011).
Like-named read-outs stand apart in the source and are kept apart here.

How the values were obtained:
[1] = system: HCV replicon cells Huh 9B; experiment: HCV replicon assay (luciferase readout); format: cell-based
Method: (§1) HCV replicon cells Huh 9B (ReBlikon), containing the firefly luciferase-ubiquitin-neomycin phosphotransferase fusion protein and EMCV-IRES driven HCV polyprotein with cell culture adaptive mutations.
Cells were cultured at 37° C. in a 5% CO2 environment and split twice a week on seeding at 2×10^6 cells/flask on day 1 and 1×10^6 3 days later. G418 at 0.5 mg/ml was added to the culture medium but not the assay medium.
The culture medium consisted of DMEM with […] glucose and glutamax (Gibco 61965-026) supplemented with 1× non-essential amino acids (Invitrogen 11140-035), penicillin (100 IU/ml)/streptomycin (100 μg/ml) (Invitrogen 15140-122), FCS (10%, 50 ml) and 1 mg/ml G418 (Invitrogen 10131-027) & 10% Australian foetal calf serum (Invitrogen 10099-141).
A flask of cells was trypsinised and a cell count carried out. Cells were diluted to 100,000 cells/ml and 100 μl of this used to seed one opaque white 96-well plate (for the replicon assay) and one flat-bottomed clear plate (for the tox assay) for every seven compounds to be tested for IC50. Wells G12 and H12 were left empty in the clear plate as the blank. Plates were then incubated at 37° C. in a 5% CO2 environment for 24 h.
(§2) On the following day compound dilutions are made up in medium at twice their desired final concentration in a clear round bottomed plate. All dilutions have a final DMSO concentration of 1%.
Once the dilution plate had been made up, controls and compounds were transferred to the assay plate (containing the cells) at 100 μl /well in duplicate plates. Exception: no compound was added to wells A1 and A2 of either plate and 100 μl of 1% DMSO was added to these instead. Plates were then incubated at 37° C. with 5% CO2 for 72 h.
At the end of the incubation time, the cells in the white plate were harvested by washing 23.5 mM beetle luciferin (Promega E1603), 26 mM ATP (Sigma 0-2060) in […] Tris buffer pH 7.8 aliquoted and stored at −80 C was thawed and diluted 1:50 in luciferase assay buffer (20 mM Tricine (Sigma T-0377), 1.07 mM magnesium carbonate hydroxide (Sigma M-5671), 0.1 mM EDTA (Sigma E-5134), 2.67 mM MgSO4 (BDH 101514Y), 33.3 mM dithiothreitol (Sigma 150460) pH 7.8).
The M injector of the microplate luminometer (Lmax, Molecular Devices) was primed with 5×300 μl injections of the diluted substrate. After 5-60 min incubation in lysis buffer at room temperature, a plate was inserted into the luminometer and 100 μl luciferase assay reagent was added by the injector on the luminometer. The signal was measured using a 1 second delay followed by a 4 second measurement programme.

[2] = system: HCV replicon cells Huh 9B; format: cell-based
Method: as §1
A flask of cells was trypsinised and a cell count carried out. […] Wells G12 and H12 were left empty in the clear plate as the blank. Plates were then incubated at 37° C. in a 5% CO2 environment for 24 h.
as §2
Exception: no compound was added to wells A1 and A2 of either plate and 100 μl of 1% DMSO was added to these instead. Plates were then incubated at 37° C. with 5% CO2 for 72 h.
The clear plate was stained with 100 μl 0.5% methylene blue in 50% ethanol at room temperature for 1 h, followed by solvation of the absorbed methylene blue in 100 μl per well of 1% lauroylsarcosine. Absorbance of the plate was measured on a microplate spectrophotometer (Molecular Devices) and the absorbance for each concentration of compound expressed as a proportion of the relative DMSO control.

[3] = concentration reducing replicon level (luciferase activity) by 50% vs untreated cell control, 72 h incubation
[4] = Hepatitis C virus, 72 h, concentration reducing replicon level (luciferase activity) by 50% vs untreated cell control, 72 h incubation
[5] = concentration reducing total cell area by 50% relative to DMSO controls, methylene blue, absorbance 620 nm, 72 h incubation

Molecule: 6-Methoxy-biphenyl-3,4′-dicarboxylic acid 4′-{[4-(1,1-dioxo-1lambda*6*-thiomorpholin-4-ylmethyl)-phenyl]-amide} 4′{[4-(4-methanesulfonyl-piperazin-1-ylmethyl)-phenyl]-amide} [Example 262]
- IC50 [1]: < 1 µM

Molecule: 6-Methyl-biphenyl-3,4′-dicarboxylic acid 4′-[(1H-indol-6-yl)-amide] 3-[(4-morpholin-4-yl-phenyl)-amide] [Example 44]
- IC50 [1, 3]: < 1 µM

Molecule: Cc1ccc(C(=O)Nc2ccc(N3CCOCC3)cc2)cc1-c1ccc(C(=O)Nc2cccc(Br)c2)cc1 [Example 1, 6-Methyl-biphenyl-3,4′-dicarboxylic acid 4′-[(3-bromo-phenyl)-amide] 3-[(4-morpholin-4-yl-phenyl)-amide]]
- IC50 [1]: 1 to 5 µM
- TD50 [2]: ** (key: * < 50 μM; ** > 50 μM)

Molecule: COc1ccc(NC(=O)c2ccc(-c3cc(C(=O)Nc4ccc(N5CCOCC5)cc4)ccc3C)cc2)cn1 [Example 2, 6-Methyl-biphenyl-3,4′-dicarboxylic acid 4′-[(6-methoxy-pyridin-3-yl)-amide] 3-[(4-morpholin-4-yl-phenyl)-amide]]
- IC50 [1]: 1 to 5 µM
- TD50 [2]: ** (key: * < 50 μM; ** > 50 μM)

Molecule: Cc1cccc(CNC(=O)c2ccc(-c3cc(C(=O)Nc4ccc(N5CCOCC5)cc4)ccc3C)cc2)c1 [Example 3, 6-Methyl-biphenyl-3,4′-dicarboxylic acid 4′-(3-methyl-benzylamide) 3-[(4-morpholin-4-yl-phenyl)-amide]]
- IC50 [1]: 1 to 5 µM
- TD50 [2]: ** (key: * < 50 μM; ** > 50 μM)

Molecule: Cc1ccc(C(=O)Nc2ccc(N3CCOCC3)cc2)cc1-c1ccc(C(=O)NCCC(C)C)cc1 [Example 4, 6-Methyl-biphenyl-3,4′-dicarboxylic acid 4′-[(3-methyl-butyl)-amide] 3-[(4-morpholin-4-yl-phenyl)-amide]]
- IC50 [1]: 1 to 5 µM
- TD50 [2]: ** (key: * < 50 μM; ** > 50 μM)

Molecule: Cc1ccc(C(=O)Nc2ccc(N3CCOCC3)cc2)cc1-c1ccc(C(=O)NCc2cccc(F)c2)cc1 [Example 5, 6-Methyl-biphenyl-3,4′-dicarboxylic acid 4′-(3-fluoro-benzylamide) 3-[(4-morpholin-4-yl-phenyl)-amide]]
- IC50 [1]: 1 to 5 µM
- TD50 [2]: ** (key: * < 50 μM; ** > 50 μM)

Molecule: Cc1ccc(C(=O)Nc2ccc(N3CCOCC3)cc2)cc1-c1ccc(C(=O)NCCN2CCCCC2)cc1 [Example 6, 6-Methyl-biphenyl-3,4′-dicarboxylic acid 3-[(4-morpholin-4-yl-phenyl)-amide] 4′-[(2-piperidin-1-yl-ethyl)-amide]]
- IC50 [1]: 1 to 5 µM
- TD50 [2]: * (key: * < 50 μM; ** > 50 μM)

Molecule: Cc1ccc(C(=O)Nc2ccc(N3CCOCC3)cc2)cc1-c1ccc(C(=O)Nc2ccc(Br)cc2)cc1 [Example 7, 6-Methyl-biphenyl-3,4′-dicarboxylic acid 4′-[(4-bromo-phenyl)-amide] 3-[(4-morpholin-4-yl-phenyl)-amide]]
- IC50 [1]: 1 to 5 µM
- TD50 [2]: * (key: * < 50 μM; ** > 50 μM)

Molecule: Cc1ccc(C(=O)Nc2ccc(N3CCOCC3)cc2)cc1-c1ccc(C(=O)Nc2cccc(OCc3ccccc3)c2)cc1 [Example 8, 6-Methyl-biphenyl-3,4′-dicarboxylic acid 4′-[(3-benzyloxy-phenyl)-amide] 3-[(4-morpholin-4-yl-phenyl)-amide]]
- IC50 [1]: 1 to 5 µM
- TD50 [2]: ** (key: * < 50 μM; ** > 50 μM)

Molecule: Cc1ccc(C(=O)NCCCN2CCN(C)CC2)cc1-c1ccc(C(=O)Nc2ccc(N3CCOCC3)cc2)cc1 [Example 9, 6-Methyl-biphenyl-3,4′-dicarboxylic acid 3-{[3-(4-methyl-piperazin-1-yl)-propyl]-amide} 4′-[(4-morpholin-4-yl-phenyl)-amide]]
- IC50 [1]: > 5 µM
- TD50 [2]: * (key: * < 50 μM; ** > 50 μM)

Molecule: Cc1ccc(C(=O)Nc2ccc(N3CCOCC3)cc2)cc1-c1ccc(C(=O)NCc2cccc(C(F)(F)F)c2)cc1 [Example 10, 6-Methyl-biphenyl-3,4′-dicarboxylic acid 3-[(4-morpholin-4-yl-phenyl)-amide] 4′-(3-trifluoromethyl-benzylamide)]
- IC50 [1]: 1 to 5 µM
- TD50 [2]: * (key: * < 50 μM; ** > 50 μM)

Molecule: Cc1ccc(C(=O)Nc2ccc(N3CCOCC3)cc2)cc1-c1ccc(C(=O)NCCc2cccs2)cc1 [Example 11, 6-Methyl-biphenyl-3,4′-dicarboxylic acid 3-[(4-morpholin-4-yl-phenyl)-amide] 4′-[(2-thiophen-2-yl-ethyl)-amide]]
- IC50 [1]: 1 to 5 µM
- TD50 [2]: ** (key: * < 50 μM; ** > 50 μM)

Molecule: Cc1ccc(C(=O)Nc2ccc(N3CCOCC3)cc2)cc1-c1ccc(C(=O)Nc2ccc3cn[nH]c3c2)cc1 [Example 12, 6-Methyl-biphenyl-3,4′-dicarboxylic acid 4′-[(1H-indazol-6-yl)-amide] 3-[(4-morpholin-4-yl-phenyl)-amide]]
- IC50 [1]: 1 to 5 µM
- TD50 [2]: ** (key: * < 50 μM; ** > 50 μM)

Molecule: Cc1ccc(C(=O)Nc2ccc(N3CCOCC3)cc2)cc1-c1ccc(C(=O)NCCc2cnc[nH]2)cc1 [Example 13, 6-Methyl-biphenyl-3,4′-dicarboxylic acid 4′-{[2-(3H -imidazol-4-yl)-ethyl]-amide} 3-[(4-morpholin-4-yl-phenyl)-amide]]
- IC50 [1]: > 5 µM
- TD50 [2]: * (key: * < 50 μM; ** > 50 μM)

Molecule: Cc1ccc(CNC(=O)c2ccc(-c3cc(C(=O)Nc4ccc(N5CCOCC5)cc4)ccc3C)cc2)o1 [Example 14, 6-Methyl-biphenyl-3,4′-dicarboxylic acid 4′-[(5-methyl-furan-2-ylmethyl)-amide] 3-[(4-morpholin-4-yl-phenyl)-amide]]
- IC50 [1]: 1 to 5 µM
- TD50 [2]: ** (key: * < 50 μM; ** > 50 μM)

Molecule: Cc1ccc(C(=O)Nc2ccc(N3CCOCC3)cc2)cc1-c1ccc(C(=O)N2CCCC2)cc1 [Example 15, 6-Methyl-4′-(pyrrolidine-1-carbonyl)-biphenyl-3-carboxylic acid (4-morpholin-4-yl-phenyl)-amide]
- IC50 [1, 4]: > 5 µM
- TD50 [2, 5]: * (* < 50 μM)

Molecule: Cc1ccc(C(=O)Nc2ccc(N3CCOCC3)cc2)cc1-c1ccc(C(=O)Nc2ccc3c(c2)OCO3)cc1 [Example 16, 6-Methyl-biphenyl-3,4′-dicarboxylic acid 4′-benzo[1,3]dioxol-5-ylamide 3-[(4-morpholin-4-yl-phenyl)-amide]]
- IC50 [1]: 1 to 5 µM
- TD50 [2]: ** (key: * < 50 μM; ** > 50 μM)

Molecule: Cc1ccc(C(=O)NC2CC2)cc1-c1ccc(C(=O)Nc2ccc(N3CCOCC3)cc2)cc1 [Example 17, 6-Methyl-biphenyl-3,4′-dicarboxylic acid 3-cyclopropylamide 4′-[(4-morpholin-4-yl-phenyl)-amide]]
- IC50 [1]: 1 to 5 µM
- TD50 [2]: * (key: * < 50 μM; ** > 50 μM)

Molecule: Cc1ccc(NC(=O)c2ccco2)cc1-c1ccc(C(=O)Nc2ccc(N3CCOCC3)cc2)cc1 [Example 18, Furan-2-carboxylic acid [6-methyl-4′-(4-morpholin-4-yl-phenylcarbamoyl)-biphenyl-3-yl]-amide]
- IC50 [1, 4]: 1 to 5 µM
- TD50 [2, 5]: * (* < 50 μM)

Molecule: Cc1ccc(C(=O)Nc2ccc(N3CCOCC3)cc2)cc1-c1ccc(C(=O)Nc2cccc(C(=O)c3ccccc3)c2)cc1 [Example 19, 6-Methyl-biphenyl-3,4′-dicarboxylic acid 4′-[(3-benzoyl-phenyl)-amide] 3-[(4-morpholin-4-yl-phenyl)-amide]]
- IC50 [1, 3]: 1 to 5 µM
- TD50 [2, 5]: ** (** > 50 μM)

Molecule: Cc1ccc(CNc2ccc3cn[nH]c3c2)cc1-c1ccc(C(=O)Nc2ccc(CN3CCS(=O)(=O)CC3)cc2)cc1 [Example 201, 5′-[(1H-Indazol-6-ylamino)-methyl]-2′-methyl-biphenyl-4-carboxylic acid [4-(1,1-dioxo-1lambda*6*-thiomorpholin-4-ylmethyl)-phenyl]-amide]
- TD50 [2, 5]: * (* < 50 μM)
